This test deals with ATF4 luciferase reporter in HEK293T cells. Kind of test: ATF4-Luc assay (in vitro model of VWMD). Format: cell-based, human. The conditions noted are these: Homo sapiens, HEK-293T, 7 h, HEK293T cells carrying the ATF4 luciferase reporter, 1 μg/mL tunicamycin, One Glo luminescence. In short, it runs like this: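 Tunicamycin (1 μg/mL) stress with co-added compound for 7 hours in HEK293T cells stably carrying an ATF4 5′-UTR–luciferase reporter. EC50 values come from the luminescent signal (One Glo).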
In general terms: In a reporter assay the amount or activity of a reporter protein is the signal.

By EC50 is commonly meant the concentration at which the effect is half-maximal. For the compound `O=C(COc1ccc(Cl)c(F)c1)NC12CC(c3ccc(C(=O)N4CC[C@H](OC(F)(F)F)C4)nc3)(C1)C2` [Compound 603, 2-(4-chloro-3-fluorophenoxy)-N-(3-{6-[(3S)-3-(trifluoromethoxy)pyrrolidine-1-carbonyl]pyridin-3-yl}bicyclo[1.1.1]pentan-1-yl)acetamide], the concentration giving a half-maximal response (EC50) was less than 0.01 µM.
Turning to `O=C(NC12CC(n3cc(OCCOC(F)(F)F)cn3)(C1)C2)C1COc2cc(Cl)c(Cl)cc2O1` (stereo not drawn) [Compound 458, 6,7-dichloro-N-(3-{4-[2-(trifluoromethoxy)ethoxy]-1H-pyrazol-1-yl}bicyclo[1.1.1]pentan-1-yl)-2,3-dihydro-1,4-benzodioxine-2-carboxamide], the EC50 lay in the range of 0.01 to 0.05 µM.
In the case of `C[C@@H](COC(F)(F)F)Oc1cnn(C23CC(NC(=O)[C@H]4C[C@@H](O)c5cc(C(F)(F)F)ccc5O4)(C2)C3)c1` [Compound 441, (2R,4R)-4-hydroxy-N-[3-(4-{[(2S)-1-(trifluoromethoxy)propan-2-yl]oxy}-1H-pyrazol-1-yl)bicyclo[1.1.1]pentan-1-yl]-6-(trifluoromethyl)-3,4-dihydro-2H-1-benzopyran-2-carboxamide], the EC50 lay within 0.01 to 0.05 µM.
To `COc1cc2cn(C34CC(NC(=O)[C@H]5C[C@@H](O)c6cc(Cl)c(F)cc6O5)(C3)C4)nc2cn1` [Compound 498, (2R,4R)-6-chloro-7-fluoro-4-hydroxy-N-[3-(5-methoxy-2H-pyrazolo[3,4-c]pyridin-2-yl)bicyclo[1.1.1]pentan-1-yl]-3,4-dihydro-2H-1-benzopyran-2-carboxamide] belongs 0.01 to 0.05 µM.
In the case of `O=C(NC12CC(n3cc(OCCOC(F)(F)F)cn3)(C1)C2)[C@H]1C[C@@H](O)c2cc(Cl)c(Cl)cc2O1` [Compound 442, (2R,4R)-6,7-dichloro-4-hydroxy-N-(3-{4-[2-(trifluoromethoxy)ethoxy]-1H-pyrazol-1-yl}bicyclo[1.1.1]pentan-1-yl)-3,4-dihydro-2H-1-benzopyran-2-carboxamide], the EC50 is less than 0.01 µM.
As for `CC(F)(F)CCCOc1cnn(C23CC(NC(=O)[C@H]4C[C@@H](O)c5cc(Cl)ccc5O4)(C2)C3)c1` [Compound 521, (2R,4R)-6-chloro-N-(3-{4-[(4,4-difluoropentyl)oxy]-1H-pyrazol-1-yl}bicyclo[1.1.1]pentan-1-yl)-4-hydroxy-3,4-dihydro-2H-1-benzopyran-2-carboxamide], the EC50 lay in the range of 0.01 to 0.05 µM.
As to `O=C(NC12CC(n3cc(N4CC[C@@H](OC(F)(F)F)C4)cn3)(C1)C2)[C@H]1C[C@@H](O)c2cc(Cl)ccc2O1` [Compound 356, (2R,4R)-6-chloro-4-hydroxy-N-(3-{4-[(3R)-3-(trifluoromethoxy)pyrrolidin-1-yl]-1H-pyrazol-1-yl}bicyclo[1.1.1]pentan-1-yl)-3,4-dihydro-2H-1-benzopyran-2-carboxamide], the concentration for a half-maximal effect (EC50) is less than 0.01 µM.
On to `O=C(NC12CC(n3cc(-c4ccc(C5CC5)cn4)cn3)(C1)C2)[C@H]1C[C@@H](O)c2cc(Cl)ccc2O1` [Compound 570, (2R,4R)-6-chloro-N-{3-[4-(5-cyclopropylpyridin-2-yl)-1H-pyrazol-1-yl]bicyclo[1.1.1]pentan-1-yl}-4-hydroxy-3,4-dihydro-2H-1-benzopyran-2-carboxamide], for which the 50% effective concentration (EC50) was less than 0.01 µM.
Turning to `O=C(NC12CC(n3cc(-c4ccc(OC(F)(F)F)cn4)cn3)(C1)C2)[C@H]1C[C@H](O)c2cc(Cl)ccc2O1` [Compound 545, (2R,4S)-6-chloro-4-hydroxy-N-(3-{4-[5-(trifluoromethoxy)pyridin-2-yl]-1H-pyrazol-1-yl}bicyclo[1.1.1]pentan-1-yl)-3,4-dihydro-2H-1-benzopyran-2-carboxamide], the EC50 is less than 0.01 µM.
To `O=C(NC12CC(n3cc(-c4ccc(OC(F)(F)F)cn4)cn3)(C1)C2)[C@@H]1C[C@@H](O)c2cc(Cl)c(F)cc2O1` [Compound 474, (2S,4R)-6-chloro-7-fluoro-4-hydroxy-N-(3-{4-[5-(trifluoromethoxy)pyridin-2-yl]-1H-pyrazol-1-yl}bicyclo[1.1.1]pentan-1-yl)-3,4-dihydro-2H-1-benzopyran-2-carboxamide] belongs less than 0.01 µM; to `Cc1ccc(-c2cnn(C34CC(NC(=O)[C@H]5C[C@@H](O)c6cc(Cl)ccc6O5)(C3)C4)c2)nc1` [Compound 554, (2R,4R)-6-chloro-4-hydroxy-N-{3-[4-(5-methylpyridin-2-yl)-1H-pyrazol-1-yl]bicyclo[1.1.1]pentan-1-yl}-3,4-dihydro-2H-1-benzopyran-2-carboxamide], less than 0.01 µM.
As to `O=C(NC12CC(OCC(=O)N3CC(COC(F)(F)F)C3)(C1)C2)[C@H]1C[C@@H](O)c2cc(Cl)ccc2O1` [Compound 335, (2R,4R)-6-chloro-4-hydroxy-N-[3-(2-oxo-2-{3-[(trifluoromethoxy)methyl]azetidin-1-yl}ethoxy)bicyclo[1.1.1]pentan-1-yl]-3,4-dihydro-2H-1-benzopyran-2-carboxamide], the half-maximal effective concentration (EC50) lay within 0.05 to 0.25 µM.
For the compound `O=C(NC12CC(n3cc(-c4ccc(C(F)(F)F)cn4)cn3)(C1)C2)[C@@H]1C[C@@H](O)c2cc(Cl)ccc2O1` [Compound 317, (2S,4R)-6-chloro-4-hydroxy-N-(3-{4-[5-(trifluoromethyl)pyridin-2-yl]-1H-pyrazol-1-yl}bicyclo[1.1.1]pentan-1-yl)-3,4-dihydro-2H-1-benzopyran-2-carboxamide], the EC50 lay within 0.01 to 0.05 µM.
Consider `O=C(NC12CC(n3cnc(C(=O)N4CC[C@H](OC(F)(F)F)C4)c3)(C1)C2)[C@H]1C[C@@H](O)c2cc(Cl)ccc2O1` [Compound 386, (2R,4R)-6-chloro-4-hydroxy-N-(3-{4-[(3S)-3-(trifluoromethoxy)pyrrolidine-1-carbonyl]-1H-imidazol-1-yl}bicyclo[1.1.1]pentan-1-yl)-3,4-dihydro-2H-1-benzopyran-2-carboxamide], for which the EC50 is less than 0.01 µM.
Turning to `O=C(N[C@H]1CC[C@H](n2cc(N3CC[C@@H](OC(F)(F)F)C3)cn2)CC1)[C@H]1C[C@@H](O)c2cc(Cl)ccc2O1` [Compound 581, (2R,4R)-6-chloro-4-hydroxy-N-[(1R,4R)-4-{4-[(3R)-3-(trifluoromethoxy)pyrrolidin-1-yl]-1H-pyrazol-1-yl}cyclohexyl]-3,4-dihydro-2H-1-benzopyran-2-carboxamide], the EC50 lay in the range of 0.01 to 0.05 µM.
For `O=C(CO[C@H]1C[C@@H](OC(F)(F)F)C1)NC12CCC(NC(=O)[C@H]3C[C@@H](O)c4cc(C(F)(F)F)c(F)cc4O3)(CC1)C[C@@H]2O` [Compound 647, (2R,4R)-7-fluoro-4-hydroxy-N-[(3S)-3-hydroxy-4-(2-{[(1s,3R)-3-(trifluoromethoxy)cyclobutyl]oxy}acetamido)bicyclo[2.2.2]octan-1-yl]-6-(trifluoromethyl)-3,4-dihydro-2H-1-benzopyran-2-carboxamide], the EC50 is less than 0.01 µM.
For the compound `O=C(NC12CC(n3cc(C[C@H]4C[C@H](OC(F)(F)F)C4)cn3)(C1)C2)[C@H]1C[C@@H](O)c2cc(Cl)c(F)cc2O1` [Compound 530, (2R,4R)-6-chloro-7-fluoro-4-hydroxy-N-[3-(4-{[(1r,3S)-3-(trifluoromethoxy)cyclobutyl]methyl}-1H-pyrazol-1-yl)bicyclo[1.1.1]pentan-1-yl]-3,4-dihydro-2H-1-benzopyran-2-carboxamide], the EC50 lay in the range of 0.01 to 0.05 µM.
Take `O=C(NC12CC(c3ccc(C(=O)N4CC[C@H](OC(F)(F)F)C4)cn3)(C1)C2)[C@H]1C[C@@H](O)c2cc(Cl)ccc2O1` [Compound 534, (2R,4R)-6-chloro-4-hydroxy-N-(3-{5-[(3S)-3-(trifluoromethoxy)pyrrolidine-1-carbonyl]pyridin-2-yl}bicyclo[1.1.1]pentan-1-yl)-3,4-dihydro-2H-1-benzopyran-2-carboxamide]: the EC50 is 0.01 to 0.05 µM.
With `O=C(NC12CC(c3ccnc(OCCCOC(F)(F)F)c3)(C1)C2)[C@H]1C[C@@H](O)c2cc(Cl)c(F)cc2O1` [Compound 427, (2R,4R)-6-chloro-7-fluoro-4-hydroxy-N-(3-{2-[3-(trifluoromethoxy)propoxy]pyridin-4-yl}bicyclo[1.1.1]pentan-1-yl)-3,4-dihydro-2H-1-benzopyran-2-carboxamide], the EC50 is less than 0.01 µM.
For `C[C@@H](COc1cnn(C23CC(NC(=O)[C@H]4C[C@@H](O)c5cc(Cl)ccc5O4)(C2)C3)c1)OC(F)(F)F` [Compound 443, (2R,4R)-6-chloro-4-hydroxy-N-(3-{4-[(2S)-2-(trifluoromethoxy)propoxy]-1H-pyrazol-1-yl}bicyclo[1.1.1]pentan-1-yl)-3,4-dihydro-2H-1-benzopyran-2-carboxamide], the EC50 is 0.01 to 0.05 µM.
With `O=C(COc1ccc(Cl)c(F)c1)NC12CCC(n3cc(OCCCOC(F)(F)F)cn3)(C1)C2` [Compound 630, 2-(4-chloro-3-fluorophenoxy)-N-(4-{4-[3-(trifluoromethoxy)propoxy]-1H-pyrazol-1-yl}bicyclo[2.1.1]hexan-1-yl)acetamide], the EC50 lay within 0.05 to 0.25 µM.
Take `O=C(NC12CC(n3cnc(C(=O)N4CCC[C@@H](OC(F)(F)F)C4)c3)(C1)C2)[C@H]1C[C@@H](O)c2cc(Cl)ccc2O1` [Compound 392, (2R,4R)-6-chloro-4-hydroxy-N-(3-{4-[(3R)-3-(trifluoromethoxy)piperidine-1-carbonyl]-1H-imidazol-1-yl}bicyclo[1.1.1]pentan-1-yl)-3,4-dihydro-2H-1-benzopyran-2-carboxamide]: the EC50 was 0.25 to 0.5 µM.
On to `O=C(COc1ccc(Cl)c(F)c1)NC12CC(n3cc(C(=O)N[C@H]4C[C@@H](OC(F)(F)F)C4)cn3)(C1)C2` [Compound 362, 1-{3-[2-(4-chloro-3-fluorophenoxy)acetamido]bicyclo[1.1.1]pentan-1-yl}-N-[cis-3-(trifluoromethoxy)cyclobutyl]-1H-pyrazole-4-carboxamide], for which the EC50 lay within 0.05 to 0.25 µM.
In the case of `O=C(NC12CC(n3cc(-c4ccn(C(F)(F)F)n4)cn3)(C1)C2)[C@H]1C[C@@H](O)c2cc(Cl)ccc2O1` [Compound 556, (2R,4R)-6-chloro-4-hydroxy-N-{3-[1-(trifluoromethyl)-1H,1′H-[3,4′-bipyrazol]-1′-yl]bicyclo[1.1.1]pentan-1-yl}-3,4-dihydro-2H-1-benzopyran-2-carboxamide], the EC50 was less than 0.01 µM.

The record behind these values is patent publication US20250145594A1, “MODULATORS OF THE INTEGRATED STRESS PATHWAY” (Calico Life Sciences LLC, priority 2020, published 2025).
